Values of other authors as cited in US20040241252A1, “Pharmaceutical compositions for oral administration comprising lithium carbonate, processes of making the same, and methods of administering the same” (priority 2003, published 2004).

Row | Compound | time to complete absorption (oral, gastrointestinal tract) | fraction of a single dose eliminated in the urine (single dose) | mean absorption half-time (single liquefied dose, volunteers)
1 | [Li+] [Li^+, lithium ion] | about 8 hours | Ninety-five | –
2 | [Cl-].[Li+] [lithium chloride] | – | – | 0.15 h
